Assay results from patent publication US9783550B2, “Highly potent inhibitors of porcupine” (The Board of Regents of the University of Texas System, priority 2013, dated 2017).
“Also recorded” adds a separate entry of the source. Blank lines part the entries; values can stand above or below the compound they belong to.

Columns and labels:
[1] = tested on: Wnt mediated branching morphogenesis in cultured embryonic kidneys; details: cultured mouse embryonic kidneys; cited from earlier work
[2] = tested on: regeneration of the tailfin (Wnt-dependent process); details: adult and juvenile fish, previously shown; cited from earlier work
[3] = tested on: cell-autonomous Wnt signaling in mouse fibroblasts (L cells); test: Wnt signaling / Porcn-inhibiting activity, EC50 in mouse fibroblasts (L cells); assay type: cell-based
Text: The four IWP lead compounds (1-4) were identified in the initial screen of 200,000 compounds (ChemDiv, ChemBridge, ComGenex, Prestwick and TimTek libraries) bear similar molecular skeletons (FIG. 1). […] The phthalazinone moiety of IWP-1 (1) and pyrimidinone moiety of IWP-2-4 (2-4) can be considered to be exchangeable scaffolding motifs for the compounds. The benzothiazole moiety appears to be a conserved motif and the phenyl group tolerates both electronic and steric perturbations.
While there is only 69% sequence identity between mouse Porcn and zebrafish Porcn, the in vitro EC50 values (FIG. 3) measured in mouse fibroblasts (L cells) correlate with the in vivo activity observed in fish but not linearly.

Relative solubility = assay type: physicochemical
[4] = tested on: phosphorylation of dishevelled 2 (Dv12) in HEK293 cells; test: Phosphorylation of dishevelled 2 in HEK293 cells (gel electrophoresis); assay type: cell-based
Text: FIG. 4—The Porcn inhibitor, IWP-L6 (FIG. 3 Compound 27), blocks the phosphorylation of the cytoplasmic Wnt pathway effector Dv12 shown through gel electrophoresis.
Among the five newly identified sub-nanomolar IWPs, compound 27 was selected for further biological evaluations and named IWP-L6. […] The in vivo stability of IWP-L6 (27) (FIG. 5) was further profiled. […] The major metabolites are the amide cleavage products. Similar species-dependent metabolitic profiles due to the involvement of carboxylesterase (CES) have been reported with other drug candidates (Eng, et al., 2010; Liu, et al., 2011) These observations are consistent with the elevated activity of CES in mouse and rat but not human (Berry, et al., 2009; Rudakova, et al., 2011; Bahar, et al., 2012).

[5] = Plasma metabolism assay, human plasma; assay type: in vitro ADME; details: over 24 h; 2 μM, 37° C.
Procedure: (§1) Plasma Metabolism Assay: Murine, rat, and human plasma, collected using acidified citrate dextrose (ACD) anticoagulant, were purchased from Bioreclamation (Westbury, N.Y.). IWP-L6 (27) was added to 1 mL of each plasma at a final concentration of 2 μM, the material was aliquoted into eppendorf tubes, and then incubated for the indicated time points in a 37° C. water bath. At each time point, an aliquot was removed and protein precipitated and compound extracted and analyzed as described above.

[6] = Plasma metabolism assay, rat plasma; assay type: in vitro ADME
Procedure: as §1

[7] = Plasma metabolism assay, murine plasma; assay type: in vitro ADME, mouse
Procedure: as §1

[8] = S9 metabolism assay, murine liver S9 fractions; assay type: in vitro ADME, mouse; details: 2 μM, 37° C., NADPH-regenerating system
Procedure: S9 Metabolism Assay: Male ICR/CD-1 mouse S9 fractions were purchased from Celsis/In Vitro Technologies (Baltimore, Md.). 50 μL (1 mg) of S9 protein was added to a 15 mL glass screw cap tube. 700 μL of a 50 mM Tris, pH 7.5 solution, containing the compound of interest was added on ice. The final concentration of compound after addition of all reagents was 2 μM. 250 μL of an NADPH-regenerating system (1.7 mg/mL NADP, 7.8 mg/mL glucose-6-phosphate, 6 U/mL glucose-6-phosphate dehydrogenase in 2% w/v NaHCO3/10 mM MgCl2) was added and the tube placed in a 37° C. shaking water bath. At varying time points after addition of phase I cofactors, the reaction was stopped by the addition of 1 mL of methanol containing an internal standard compound, n-benzylbenzamide, and formic acid. The samples were incubated 10 min at room temperature and then spun once at 975×g in the glass tube. The supernatant was spun a second time at 16,000×g for 5 min in a microcentrifuge. The supernatant was analyzed by LC-MS/MS. Analytical methods were developed for each compound using an AB SCIEX 3200-QTrap, a combination triple quadrupole/ion trap instrument. Compound transitions utilized for quantitation were as follows: IWP-L6 (27): 473.2 to 303.1; aniline: 171.2 to 127.0; n-benzylbenzamide (internal standard): 212.1 to 91.1. […]

[9] = tested on: regeneration of the tailfin (Wnt-dependent process); test: Zebrafish tailfin regeneration; assay type: in vivo
Text: Achieving transient repression of pathological Wnt response without incurring permanent damage to normal stem cell function is a key anticancer therapeutic goal.

[10] = tested on: posterior axis formation (Wnt/β-catenin dependent developmental process); test: Zebrafish posterior axis formation assay; assay type: in vivo; details: zebrafish embryos, low micromolar concentrations, FIG. 7
Procedure: Zebrafish embryos harboring a mCherry-based reporter of Wnt/β-catenin signaling (Moro, et al., 2012) were treated with increasing concentrations of IWP-L6 (FIG. 3 Compound 27) in the aquarium water. Fluorescence intensity of animals was quantified as before (Dodge et al., 2012). (FIG. 7B) Activity of the IWP compounds IWP-L6 (Compound 27), 30, 32, and 35 was measured using the posterior axis formation assay.

[11] = tested on: Wnt mediated branching morphogenesis in cultured embryonic kidneys; test: Branching morphogenesis in cultured mouse embryonic kidneys; assay type: cell-based
Procedure: FIGS. 8A-B—(FIG. 8A) IWP-L6 (Compound 27) inhibits Wnt mediated branching morphogenesis in cultured embryonic kidneys. Hoxb7Cre; RosaTomato kidneys were dissected from E11.5 embryos and cultured at the air/media interface (Dodge, et al., 2012; Kamer, et al., 2010) Media was replaced every 24 hours. Images were captured every 24 hours using a Zeiss Lumar V12 fluorescent stereoscope. Magnitude: 80× at 0 hours and 24 hours; 60× at 48 hours. (FIG. 8B) The fold increase in the number of ureteric bud tips between time=0 and 48 hours for each treatment was quantified. Statistics were performed using Student T-test.
IWP2 (2) has been previously shown to specifically and reversibly block Wnt signaling and Wnt mediated branching morphogenesis in cultured mouse embryonic kidneys (Kamer, et al., 2010; Dodge, et al., 2012, which are incorporated by reference herein). […] Embryonic day (E) 11.5 kidneys in media containing various doses (1 nM to 1 μM) of IWP-L6 (27) were cultured. […] In comparison, a dose of 5 μM of IWP-2 (2) was required to obtain similar results (Dodge, et al., 2012; Karner, et al., 2010).

SMILES: Cc1ccc2nc(NC(=O)CSc3nc4c(c(=O)n3-c3ccccc3)SCC4)sc2c1 [IWP-2]
dose required to obtain similar results (block of branching morphogenesis) [1]: 5 µM

SMILES: Cc1ccc2nc(NC(=O)CSc3nc4c(c(=O)n3C)SC(C)C4)sc2c1 (centres unmarked) [IWP-12]
block of tailfin regeneration [2]: effectively block

solubility relative to IWP-2 (2) and 20 (Relative solubility): more soluble
t1/2 in rat plasma ([6]; 2 μM, 37° C.): 190 min
degradation in rat plasma (in words) ([6]; as a function of time, FIG. 5): much more significant degradation
t1/2 in murine plasma ([7]; 2 μM, 37° C.): 2 min
degradation in mouse plasma (in words) ([7]; as a function of time, FIG. 5): much more significant degradation
t1/2 in murine liver S9 fractions [8]: 26 min
SMILES: O=C(CSc1nc2c(c(=O)n1-c1ccccc1)SCC2)Nc1ccc(-c2ccccc2)cn1 [IWP-L6]
EC50 (in words) [3]: sub-nanomolar
Porcn-inhibiting activity (in words) ([3]; general structure C, FIG. 3 series): slight improvement of activity
suppression of phosphorylation of dishevelled 2 (Dv12) [4]: effectively suppressed; also recorded: blocks
stability in human plasma [5]: stable; also recorded: little degradation
fin regeneration after chemical removal ([9]; resected caudal fins, 7 d in water containing compound, then removal): nearly normal levels
inhibition of tailfin regeneration (comparison in words) ([9]; zebrafish, FIG. 6): more potent activity; also recorded: more significant
inhibition of posterior axis formation [10]: effectively inhibit; also recorded: inhibits
dose that completely blocked branching morphogenesis ([11]; E11.5 kidneys): ≥ 50 nM
dose that significantly reduced branching morphogenesis ([11]; E11.5 kidneys, relative to DMSO treated controls): ≥ 10 nM
inhibition of Wnt mediated branching morphogenesis (in words) ([11]; FIG. 8A): inhibits
potency relative to IWP-2 (2) ([11]; cultured E11.5 mouse kidneys): at least 100 times

SMILES: O=C(Nc1cccc2cccnc12)c1ccc(N2C(=O)[C@@H]3[C@H](C2=O)[C@@H]2C=C[C@H]3C2)cc1 [IWR-1]
block of tailfin regeneration [2]: effectively block
